Test results: ChEMBL document CHEMBL1124282, “Synthesis of fluorescent muramyl dipeptide congeners. 2” (1988)

Key:
Cavia porcellus [1] = species on record: Cavia porcellus; experiment: Antibody response to the compound was determined in guinea pigs; type: functional
Cavia porcellus [2] = species on record: Cavia porcellus; experiment: Adjuvant activity was determined by the ability of compound to stimulate delayed hypersensitivity by intradermal injection of 10 ug of ovalbumin after 48 hr in guinea pigs; type: functional

SMILES: COc1ccc2c(c1)Oc1cc(O)ccc1/C2=C1C=C/C(=N/c2nc(O)nc(NCCCC[C@H](NC(=O)[C@@H](C)OC3C(O)C(CO)OC(O)C3NC(C)=O)C(=O)N[C@H](CCC(=O)O)C(N)=O)n2)C=C\1C(=O)O (stereo partly drawn)
- Antibody response (Cavia porcellus [1]): 17.6
- DTH (Cavia porcellus [2]): 2.9

SMILES: COc1ccc2c(c1)Oc1cc(O)ccc1/C2=C1C=C/C(=N/c2nc(O)nc(NCCCC[C@H](NC(=O)CC[C@@H](NC(=O)[C@H](C)NC(=O)[C@@H](C)OC3C(O)C(CO)OC(O)C3NC(C)=O)C(N)=O)C(=O)O)n2)C=C\1C(=O)O (stereo partly drawn)
- Antibody response (Cavia porcellus [1]): 192
- DTH (Cavia porcellus [2]): 20.2

SMILES: COc1ccc2c(c1)Oc1cc(O)ccc1/C2=C1C=C/C(=N/c2nc(O)nc(OCC3OC(O)C(NC(C)=O)C(O[C@H](C)C(=O)N[C@@H](C)C(=O)N[C@H](CCC(=O)O)C(N)=O)C3O)n2)C=C\1C(=O)O (stereo partly drawn)
- Antibody response (Cavia porcellus [1]): 123.34
- DTH (Cavia porcellus [2]): 11.5

SMILES: CC(=O)N[C@H]1C(O)O[C@H](CO)[C@@H](O)[C@@H]1O[C@H](C)C(=O)N[C@@H](C)C(=O)N[C@H](CCC(=O)O)C(N)=O (stereo partly drawn) [MURAMYL DIPEPTIDE]
- Antibody response (Cavia porcellus [1]): 82.49
- DTH (Cavia porcellus [2]): 10.6
